How the values were obtained:
[1] = Reduction of oxidized coenzyme Q10 by amino acid in limonene, HPLC proportion of reduced coenzyme Q10; conditions: 85° C., 16 hours, nitrogen atmosphere; for Comparative Example 4: proportion of reduced coenzyme Q10: 6 equivalents amino acid; for proportions of reduced coenzyme Q10: Example 3: 6 equivalents
Protocol: (§1) The purity of reduced coenzyme Q10 and the weight ratio of reduced coenzyme Q10 to oxidized coenzyme Q10 were determined by HPLC analysis in the Examples.
(§2) Column: […] C18 (Waters): 250 mm (length)×4.6 mm (inner diameter); mobile phase: C2H5OH:CH3OH=4:3 (v:v); detection wavelength: 210 nm; flow rate: 1 ml/min; retention time for reduced coenzyme Q10: 9.1 min.; retention time for oxidized coenzyme Q10: 13.3 min.
Crystalline oxidized coenzyme Q10 (0.3 g (i.e. 0.36 mmol)) was added to limonene (4.5 g). Proline (6 equivalents (i.e., 2.16 mmol)) or serine (6 equivalents (i.e. 2.16 mmol)) was separately added thereto. The obtained mixtures were stirred and heated at 85° C. for 16 hours under a nitrogen atmosphere. The reaction solutions were analyzed by HPLC after the reaction.
(§3) Crystalline oxidized coenzyme Q10 (0.3 g (i.e., 0.36 mmol)) was added to limonene (4.5 g). One of the amino acids (6 equivalents (i.e., 2.16 mmol) each) listed in table 3 was separately added thereto. The obtained mixtures were stirred and heated at 85° C. for 16 hours under a nitrogen atmosphere.

[2] = Reduction of oxidized coenzyme Q10 by amino acid in ethanol, HPLC proportion of reduced coenzyme Q10; conditions: 78° C., 16 hours, nitrogen atmosphere; for Comparative Example 2: proportion of reduced coenzyme Q10: 6 equivalents amino acid; for Proportion of reduced coenzyme Q10: Example 1: 6 equivalents amino acid
Protocol: as §1
Crystalline oxidized coenzyme Q10 (0.3 g (i.e., 0.36 mmol)) was added to ethanol (4.5 g). […] The obtained mixtures were stirred and heated at 78° C. for 16 hours under a nitrogen atmosphere.

[3] = Reduction of oxidized coenzyme Q10 by amino acid in Span 80/glycerin/Tween 80/MCT, HPLC proportion of reduced coenzyme Q10; conditions: Span 80, glycerin, Tween 80, MCT, 80° C., 16 hours, nitrogen atmosphere; for Comparative Example 3: proportion of reduced coenzyme Q10: 6 equivalents amino acid; for Proportion of reduced coenzyme Q10: Example 2 / Comparative Example 1: 6 equivalents
Protocol: as §1, §2
Crystalline oxidized coenzyme Q10 (0.3 g (i.e., 0.36 mmol)) and tryptophan (6 equivalents (i.e., 2.16 mmol)) were added to a liquid mixture of Span 80 (0.4 g), glycerin (0.3 g), Tween 80 (4.9 g), and MCT (1.4 g). The obtained mixture was stirred and heated at 80° C. for 16 hours under a nitrogen atmosphere.
(§4) Crystalline oxidized coenzyme Q10 (0.3 g (i.e., 0.36 mmol)) was added to a liquid mixture of Span 80 (0.4 g), glycerin (0.3 g), Tween 80 (4.9 g), and MCT (1.4 g). L-cysteine or N-acetylcysteine (6 equivalents (i.e., 2.16 mmol) each) was separately added thereto. The obtained mixtures were stirred and heated at 80° C. for 16 hours under a nitrogen atmosphere.
as §4, with “One of the amino acids” for “L-cysteine or N-acetylcysteine”, “each) listed in table 3” for “each)”

[4] = Reduction of oxidized coenzyme Q10 by amino acid in condensed ricinoleate (CR-310)/MCT, HPLC proportion of reduced coenzyme Q10; conditions: condensed ricinoleate (CR-310) and MCT, 80° C., 16 hours, nitrogen atmosphere; for Comparative Example 5: proportion of reduced coenzyme Q10: 6 equivalents amino acid
Protocol: as §1, §2
Crystalline oxidized coenzyme Q10 (0.3 g (i.e. 0.36 mmol)) and tryptophan (6 equivalents (i.e., 2.16 mmol)) were added to a liquid mixture of condensed ricinoleate (CR-310, Sakamoto Yakuhin Kogyo Co., Ltd.) (3.8 g) and MCT (3.8 g). The obtained mixture was stirred and heated at 80° C. for 16 hours under a nitrogen atmosphere. The reaction solution was analyzed by HPLC after the reaction.
as §3, with “a liquid mixture of condensed ricinoleate (CR-310, Sakamoto Yakuhin Kogyo Co., Ltd.) (3.8 g) and MCT (3.8” for “limonene (4.5”, “80°” for “85°”

| Molecule | Comparative Example 4: proportion of reduced coenzyme Q10 [1] [%] | Comparative Example 2: proportion of reduced coenzyme Q10 [2] [%] | Comparative Example 3: proportion of reduced coenzyme Q10 [3] [%] | Comparative Example 5: proportion of reduced coenzyme Q10 [4] [%] | Proportion of reduced coenzyme Q10 [2] [% by weight] | further results |
| --- | --- | --- | --- | --- | --- | --- |
| C[C@H](N)C(=O)O [Alanine] | 0 | 0 | 0 | 0 | – | – |
| N=C(N)NCCC[C@H](N)C(=O)O [Arginine] | – | – | – | – | 35 | – |
| NCC(=O)O [Glycine] | 0 | 0 | 0 | 1 | – | – |
| CC[C@H](C)[C@H](N)C(=O)O [Isoleucine] | 0 | 1 | 1 | 0 | – | – |
| N[C@@H](CS)C(=O)O [L-cysteine] | – | – | – | – | – | Proportion of reduced coenzyme Q10 [3]: 7% by weight |
| CC(=O)N[C@@H](CS)C(=O)O [N-acetylcysteine] | – | – | – | – | – | Proportion of reduced coenzyme Q10 [3]: 3% by weight |
| O=C(O)[C@@H]1CCCN1 [Proline] | – | – | – | – | 6 | proportions of reduced coenzyme Q10 [1]: 8 % by weight |
| N[C@@H](CO)C(=O)O [Serine] | – | – | – | – | 5 | proportions of reduced coenzyme Q10 [1]: 3 % by weight |
| N[C@@H](Cc1c[nH]c2ccccc12)C(=O)O [Tryptophan] | – | – | – | – | 21 | Proportion of reduced coenzyme Q10 [3]: 33% by weight; Proportion of reduced coenzyme Q10 ([4]; Example 4: 6 equivalents): 5 % by weight |
| CC(C)[C@H](N)C(=O)O [Valine] | 0 | 1 | 0 | 0 | – | – |
| Lysine•n hydrate | – | – | – | – | 69 | – |
